Experimental data: PubChem BioAssay (NCI)
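Compound exposure: 48 hours, 5 concentrations, 96-well plates. GI50 is the concentration that inhibits growth by half. TGI denotes the concentration required for complete inhibition of growth.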

What was measured:
Assay in all cases: DTP human tumour cell line panel, 48 h
RPMI-8226 leukemia = system: RPMI-8226 leukemia
SF-539 CNS = system: SF-539 CNS
RXF 393 renal = system: RXF 393 renal
UO-31 renal = system: UO-31 renal
LOX IMVI melanoma = system: LOX IMVI melanoma
SK-MEL-28 melanoma = system: SK-MEL-28 melanoma
M14 melanoma = system: M14 melanoma
MALME-3M melanoma = system: MALME-3M melanoma
SF-295 CNS = system: SF-295 CNS
786-0 renal = system: 786-0 renal
K-562 leukemia = system: K-562 leukemia
TK-10 renal = system: TK-10 renal
UACC-257 melanoma = system: UACC-257 melanoma
U251 CNS = system: U251 CNS
SK-MEL-5 melanoma = system: SK-MEL-5 melanoma
HOP-92 NSCLC = system: HOP-92 NSCLC
SK-MEL-2 melanoma = system: SK-MEL-2 melanoma
BT-549 breast = system: BT-549 breast
HCC-2998 colon = system: HCC-2998 colon
UACC-62 melanoma = system: UACC-62 melanoma
SR leukemia = system: SR leukemia
SF-268 CNS = system: SF-268 CNS
NCI-H23 lung = system: NCI-H23 lung
SW-620 colon = system: SW-620 colon
COLO 205 colon = system: COLO 205 colon
NCI-H460 lung = system: NCI-H460 lung
CAKI-1 renal = system: CAKI-1 renal
SN12C renal = system: SN12C renal

## O=C(Nc1ccc2cc3ccc(NC(=O)N4CCCCCC4)cc3nc2c1)N1CCCCCC1
RPMI-8226 leukemia
  GI50: 315 nM
  TGI: 1020 nM
SF-539 CNS
  GI50: 841 nM
  TGI: 2090 nM
RXF 393 renal
  GI50: 219 nM
  TGI: 505 nM
UO-31 renal
  GI50: 1660 nM
  TGI: 3040 nM
LOX IMVI melanoma
  GI50: 1420 nM
  TGI: 2750 nM
SK-MEL-28 melanoma
  GI50: 1320 nM
  TGI: 2670 nM
M14 melanoma
  GI50: 1320 nM
  TGI: 2780 nM
MALME-3M melanoma
  GI50: 1130 nM
  TGI: 2530 nM
SF-295 CNS
  GI50: 783 nM
  TGI: 2120 nM
786-0 renal
  GI50: 344 nM
  TGI: 1280 nM
K-562 leukemia
  GI50: 350 nM
  TGI: 1230 nM
TK-10 renal
  GI50: 1920 nM
  TGI: 3460 nM
UACC-257 melanoma
  GI50: 1810 nM
  TGI: 3360 nM
U251 CNS
  GI50: 534 nM
  TGI: 1810 nM
SK-MEL-5 melanoma
  GI50: 1480 nM
  TGI: 2810 nM
HOP-92 NSCLC
  GI50: 1570 nM
  TGI: 3280 nM
SK-MEL-2 melanoma
  GI50: 1620 nM
  TGI: 3140 nM

## C=CC(=O)N1CC2(CC(n3nc(-c4ccc(Oc5ccccc5)cc4)c4c(N)ncnc43)C2)C1
BT-549 breast
  GI50: 1400 nM
  TGI: > 100000 nM
HCC-2998 colon
  GI50: > 100000 nM
  TGI: > 100000 nM
UACC-62 melanoma
  GI50: 1720 nM
  TGI: > 100000 nM
SR leukemia
  GI50: 6450 nM
  TGI: > 100000 nM
M14 melanoma
  GI50: 2230 nM
  TGI: > 100000 nM
SF-268 CNS
  GI50: 1430 nM
  TGI: > 100000 nM
NCI-H23 lung
  GI50: > 100000 nM
  TGI: > 100000 nM
SW-620 colon
  GI50: > 100000 nM
  TGI: > 100000 nM
SF-295 CNS
  GI50: > 100000 nM
  TGI: > 100000 nM
COLO 205 colon
  GI50: 1460 nM
  TGI: > 100000 nM
NCI-H460 lung
  GI50: > 100000 nM
  TGI: > 100000 nM
K-562 leukemia
  GI50: 1190 nM
  TGI: > 100000 nM
CAKI-1 renal
  GI50: 1040 nM
  TGI: > 100000 nM
UACC-257 melanoma
  GI50: 1970 nM
  TGI: > 100000 nM
SN12C renal
  GI50: 780 nM
  TGI: > 100000 nM
